T1: OCT1 (Homo sapiens, UniProt O15245)
T1 construct: containing the full length SLC22A1 cDNA (NM_003057) encoding the human OCT1 protein; expressed in transfected cells
T1 sequence (O15245 1-554): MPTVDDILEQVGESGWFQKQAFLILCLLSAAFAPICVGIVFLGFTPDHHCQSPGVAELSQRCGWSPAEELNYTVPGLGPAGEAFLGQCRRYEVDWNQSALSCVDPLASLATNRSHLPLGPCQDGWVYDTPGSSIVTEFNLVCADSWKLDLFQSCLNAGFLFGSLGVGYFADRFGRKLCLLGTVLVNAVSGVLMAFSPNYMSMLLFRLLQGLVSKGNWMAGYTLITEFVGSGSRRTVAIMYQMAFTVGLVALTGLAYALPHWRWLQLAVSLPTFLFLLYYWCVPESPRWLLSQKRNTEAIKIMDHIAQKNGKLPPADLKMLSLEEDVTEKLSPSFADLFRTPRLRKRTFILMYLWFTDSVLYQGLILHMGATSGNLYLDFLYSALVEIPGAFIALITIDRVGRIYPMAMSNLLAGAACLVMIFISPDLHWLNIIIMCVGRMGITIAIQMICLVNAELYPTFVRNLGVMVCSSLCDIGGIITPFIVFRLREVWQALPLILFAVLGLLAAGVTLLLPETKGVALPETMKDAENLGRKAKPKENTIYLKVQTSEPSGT

T2: OCT3 (Homo sapiens, UniProt O75751)
T2 construct: expressed in transfected cells; host or cells: HEK293 (HEK-OCT3)
T2 sequence (O75751 1-556): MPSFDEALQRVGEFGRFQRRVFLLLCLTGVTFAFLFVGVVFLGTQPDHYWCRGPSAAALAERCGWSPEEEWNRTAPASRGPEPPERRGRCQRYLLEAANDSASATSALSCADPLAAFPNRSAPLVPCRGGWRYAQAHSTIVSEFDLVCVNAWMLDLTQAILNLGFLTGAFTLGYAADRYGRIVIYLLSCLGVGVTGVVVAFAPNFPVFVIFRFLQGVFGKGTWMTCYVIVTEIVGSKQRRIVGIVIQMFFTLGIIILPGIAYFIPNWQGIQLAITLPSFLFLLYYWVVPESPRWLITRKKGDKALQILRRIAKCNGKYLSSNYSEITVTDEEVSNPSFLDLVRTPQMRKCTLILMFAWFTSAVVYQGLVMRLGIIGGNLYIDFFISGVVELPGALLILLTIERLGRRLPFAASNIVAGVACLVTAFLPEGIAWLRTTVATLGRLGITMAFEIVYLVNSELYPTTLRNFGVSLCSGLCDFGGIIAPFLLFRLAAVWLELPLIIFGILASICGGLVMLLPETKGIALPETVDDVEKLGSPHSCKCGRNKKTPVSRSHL

B1: human OCT1 (Homo sapiens) (protein)
chain: T1 sequence (O15245 1-554)
notes: containing the full length SLC22A1 cDNA (NM_003057) encoding the human OCT1 protein; expressed in transfected cells
B2: OCT3 (Homo sapiens) (protein)
chain: T2 sequence (O75751 1-556)
notes: expressed in transfected cells; host or cells: HEK293 (HEK-OCT3)

Assays:
OCT1 = molecular target: T1, OCT1; test: Michaelis-Menten kinetics of ASP+ uptake, HEK-OCT1; assay type: cell-based
Experimental: (§1) The previously described fluorescent substrate of organic cation transporters, 4-(4-dimethylaminostyryl)-N-methylpyridinium (ASP^+), was used to determine the function of OCT1 and OCT3 by flow cytometry in the absence and the presence of bendamustine and selected bendamustine esters. HEK293 cells expressing the transporter of interest were trypsinized and washed twice with PBS, prior to re-suspension of 0.5 · 10^6 cells in 500 μL of PBS containing 2% (v/v) FCS. The cells were incubated with ASP^+ (100 μM stock solution in PBS containing 10% DMSO) for 5 minutes, allowing for cellular accumulation, and subsequently analyzed with a FACSCalibur flow cytometer. ASP^+ was excited at 488 nm and the fluorescence was measured using a 530/30 nm and a 585/42 band-pass filter. At least 1 · 10^4 single cells were analyzed by appropriate FSC/SSC gating.
(§2) Subsequently, two volumes of an ice-cold 200 μM solution of the standard inhibitor of OCT1 and OCT3, tetrapentyl ammonium (TPA), in PBS/FCS were added to one volume of cell suspension. The mixture was immediately analyzed. The mean fluorescence intensities (MFI) were calculated using FlowJo V10, and the difference between total (HEK-OCT1 or HEK-OCT3 cells) and unspecific (HEK-Co cells) uptake was plotted as specific uptake against the concentration of ASP^+. […] Km was calculated according to the Michaelis-Menten equation using GraphPad Prism 5.01.

OCT3 = molecular target: T2, OCT3; test: Michaelis-Menten kinetics of ASP+ uptake, HEK-OCT3; assay type: cell-based
Experimental: as §1, §2

[1] = system: HEL 92.1.7 cells (erythroleukemia); test: Chemosensitivity assay (MTT-assay), HEL 92.1.7; assay type: cell-based, human; settings: Homo sapiens, HEL 92.1.7, 96 h, 96 hours of incubation, mean ± SEM
Experimental: (§3) Depending on the characteristics of the cells, two different assays were performed. For adherently growing cells (HaCaT, HT-29, NCI-H460, SK-MEL-3, MG-63, Capan-1), cytotoxic and cytocidal effects were determined in the crystal violet assay, whereas for loosely adherent cells (LNCaP, SK-ES-1) and cells growing in suspension (HEL 92.1.7, Jurkat, U-937) the MTT-assay was used with minor modifications. In brief, 1.5 · 10^3 (HaCaT, HT-29, NCI-H460, SK-MEL-3, MG-63, Capan-1) or 5 · 10^3 (Jurkat, U-937, HEL92.1.7, LNCaP, SK-ES-1) cells per well were seeded into flat-bottom 96-well plates (Sarstedt, Nümbrecht, Germany). All compounds were used as solutions prepared in DMSO and tested at final concentrations (8 replicates per concentration) of 1, 3, 10, 30 and 50 μM. In case of the vehicle control and test compounds, the final DMSO concentration amounted to 0.1%. Absorbance was measured at 580 nm in a 96-well plate reader (GENios pro microplate reader, Tecan, Salzburg, Austria). Effects were quantified as previously described for both assays.

[2] = system: Jurkat cells (acute T-cell leukemia); test: Chemosensitivity assay (MTT-assay), Jurkat; assay type: cell-based, human; settings: Homo sapiens, 96 h, 96 hours of incubation, mean ± SEM
Experimental: as §3

[3] = system: U-937 cells (histiocytic lymphoma); test: Chemosensitivity assay (MTT-assay), U-937; assay type: cell-based, human; settings: Homo sapiens, U-937, 96 h, 96 hours of incubation, mean ± SEM
Experimental: as §3

[4] = system: MG-63 cells (osteosarcoma); test: Chemosensitivity assay (crystal violet assay), MG-63; assay type: cell-based, human; settings: Homo sapiens, MG-63, 96 h, 96 hours of incubation, crystal violet assay, mean ± SEM
Experimental: as §3

[5] = system: SK-ES-1 cells (Ewing's sarcoma); test: Chemosensitivity assay (MTT-assay), SK-ES-1; assay type: cell-based, human; settings: 96 hours of incubation, mean ± SEM
Experimental: as §3

[6] = system: Capan-1 cells (pancreatic adenocarcinoma); test: Chemosensitivity assay (crystal violet assay), Capan-1; assay type: cell-based, human; settings: Homo sapiens, CAPAN-1, 96 h, 96 hours of incubation, mean ± SEM
Experimental: as §3

[7] = system: LNCaP cells (prostate cancer); test: Chemosensitivity assay (MTT-assay), LNCaP; assay type: cell-based, human; settings: Homo sapiens, 96 hours of incubation, mean ± SEM, read-out: IC50
Experimental: as §3

[8] = system: NCI-H460 cells (large cell lung cancer); test: Chemosensitivity assay (crystal violet assay), NCI-H460; assay type: cell-based, human; settings: Homo sapiens, 96 hours of incubation, mean ± SEM, read-out: IC50
Experimental: as §3

[9] = system: HT-29 cells (colorectal adenocarcinoma); test: Chemosensitivity assay (crystal violet assay), HT-29; assay type: cell-based, human; settings: Homo sapiens, 96 hours of incubation, mean ± SEM, read-out: IC50
Experimental: as §3

[10] = system: SK-MEL-3 cells (malignant melanoma); test: Chemosensitivity assay (crystal violet assay), SK-MEL-3; assay type: cell-based, human; settings: Homo sapiens, SK-MEL3, 96 hours of incubation, mean ± SEM, read-out: IC50
Experimental: as §3

[11] = substrate: CN(C)c1ccc(/C=C/c2cc[n+](C)cc2)cc1; test: Michaelis-Menten kinetics of ASP+ uptake, HEK-OCT1; assay type: cell-based, human; settings: other: HEK-OCT1; substrate uptake, flow cytometry; 37.0 °C
Experimental: as §1, §2

[12] = substrate: CN(C)c1ccc(/C=C/c2cc[n+](C)cc2)cc1; test: Michaelis-Menten kinetics of ASP+ uptake, HEK-OCT3; assay type: cell-based, human; settings: other: HEK-OCT3; substrate uptake, flow cytometry; 37.0 °C
Experimental: as §1, §2

| Molecule | vmax (maximal uptake rate) (OCT1) | vmax (maximal uptake rate) (OCT3) | IC50 [1] [nM] | IC50 [2] [nM] | IC50 [3] [nM] | IC50 [4] [nM] | IC50 [5] [nM] | IC50 ([5]; Homo sapiens, SK-ES1, 96 h) [nM] | IC50 [6] [nM] | IC50 [7] [nM] | IC50 [8] [nM] | IC50 [9] [nM] | IC50 [10] [nM] | Km [11] [µM] | Km [12] [µM] |
| --- | --- | --- | --- | --- | --- | --- | --- | --- | --- | --- | --- | --- | --- | --- | --- |
| CN(C)c1ccc(C=Cc2cc[n+](C)cc2)cc1.[I-] [ASP^+, 4-[4-(dimethylamino)styryl]-N-methylpyridinium iodide] | 2808 ± 78 MFI/(10^4 cells · min) | 5321 ± 89 MFI/(10^4 cells · min) |  |  |  |  |  |  |  |  |  |  |  |  |  |
| CCOC(=O)CCCc1nc2cc(N(CCCl)CCCl)ccc2n1C [Compound 3] |  |  | 2900 ± 200 | 3800 ± 40 | 1900 ± 10 | 2100 ± 60 | 180 ± 10 | ~200 | 1000 ± 10 | 1500 ± 100 | 4800 ± 100 | 10000 ± 100 | 21700 ± 4100 |  |  |
| Cn1c(CCCC(=O)OCCN2CCCCC2)nc2cc(N(CCCl)CCCl)ccc21 [Compound 6] |  |  | 1300 ± 100 | 830 ± 10 | 1100 ± 200 | 530 ± 10 |  | 190 ± 10 | 170 ± 10 | 750 ± 30 | 1200 ± 100 | 1700 ± 100 | 1240 ± 100 |  |  |
| CN1CCN(CCOC(=O)CCCc2nc3cc(N(CCCl)CCCl)ccc3n2C)CC1 [Compound 7] |  |  | 1700 ± 100 | 900 ± 30 | 1300 ± 300 | 550 ± 10 |  | 190 ± 30 | 250 ± 20 | 930 ± 120 | 1200 ± 100 | 2400 ± 100 | 1000 ± 270 |  |  |
| B1 |  |  |  |  |  |  |  |  |  |  |  |  |  | 3.1 ± 0.1 |  |
| B2 |  |  |  |  |  |  |  |  |  |  |  |  |  |  | 2.7 ± 0.1 |

From article PMC4721923 (PLoS ONE, 2015)
